According to patent US20110105623A1 (Biogenic Innovations, LLC, priority 2009, published 2011):

Experiments:
Assay type in all cases: cell-based
[1] = system: Salmonella typhimurium; experiment: USP AET, MSM in TSB; parameters: key: Colonies too numerous to count (TNTC); details: 48 hrs
[2] = system: Bacillus coagulans; experiment: Growth in simulated gastric acid supplemented with MSM
[3] = system: Bifidobacterium bifidum; experiment: Probiotic growth in media supplemented with MSM; parameters: unit not given here
Description: Plates were then counted. […] Data are presented in Cfu/mL.

With Methylsulfonylmethane [MSM] the AET microorganism count ([1]; 1:100 dilution of MSM) was “TNTC”, the AET microorganism count ([1]; 1:1000 dilution of MSM) was “TNTC” and the “Log Growth of Bacillus coagulans average” value ([2]; 5% MSM, 0 hours) was 0.26 logs. For the same substance, the “Log Growth of Bacillus coagulans average” value ([2]; 5% MSM, 3 hours) was 0 logs, the “Log Growth of Bacillus coagulans in duplicate” value (shortened to “Log Growth … in duplicate”) ([2]; 5% MSM, 3 hours) was 0 logs and the “Log Growth of Bacillus coagulans average” value ([2]; 5% MSM, 6 hours) was 0 logs. For the same substance, the “Log Growth … in duplicate” value ([2]; 5% MSM, 6 hours) was 0 logs, the “Log Growth of Bacillus coagulans average” value ([2]; 5% MSM, 9 hours) was 0 logs and the “Log Growth … in duplicate” value ([2]; 5% MSM, 9 hours) was 0 logs. For the same substance, the “Log Growth of Bacillus coagulans average” value ([2]; 5% MSM, 12 hours) was 0 logs, the “Log Growth … in duplicate” value ([2]; 5% MSM, 12 hours) was 0 logs and the “Log Growth of Bacillus coagulans average” value ([2]; 5% MSM, 15 hours) was 0.26 logs. For the same substance, the “Log Growth of Bacillus coagulans average” value ([2]; 5% MSM, 24 hours) was 0 logs, the “Log Growth … in duplicate” value ([2]; 5% MSM, 24 hours) was 0 logs and the “Log Growth of Bacillus coagulans average” value ([2]; 5% MSM, 48 hours) was 0 logs. For the same substance, the “Log Growth … in duplicate” value ([2]; 5% MSM, 48 hours) was 0 logs, the “Log Growth … in duplicate” value ([2]; […] MSM, 0 hours) was 0 logs and the “Log Growth … in duplicate” value ([2]; […] MSM, 3 hours) was 0 logs. For the same substance, the “Log Growth of Bacillus coagulans average” value ([2]; […] MSM, 9 hours) was 0 logs, the “Log Growth … in duplicate” value ([2]; […] MSM, 9 hours) was 0 logs and the “Log Growth … in duplicate” value ([2]; […] MSM, 12 hours) was 0 logs. The “Log Growth of Bacillus coagulans average” value ([2]; […] MSM, 15 hours) was 0 logs, the “Log Growth … in duplicate” value ([2]; […] MSM, 15 hours) was 0 logs and the “Log Growth of Bacillus coagulans average” value ([2]; […] MSM, 24 hours) was 0 logs. For the same substance, the “Log Growth … in duplicate” value ([2]; […] MSM, 24 hours) was 0 logs, the “Log Growth of Bacillus coagulans average” value ([2]; […] MSM, 48 hours) was 0 logs and the “Log Growth … in duplicate” value ([2]; […] MSM, 48 hours) was 0 logs. The “initial recovery, average” value ([2]; […] and 5.0% MSM) was 0.26 logs, the “Growth of Bifidobacteruim bifidum” value ([3]; 0.125% MSM, 0 h) was 1.64 and the “Growth of Bifidobacteruim bifidum” value ([3]; 0.125% MSM, 8 h) was 1.73. For the same substance, the “Growth of Bifidobacteruim bifidum” value ([3]; 0.125% MSM, 16 h) was 6.55, the “Growth of Bifidobacteruim bifidum” value ([3]; 0.125% MSM, 24 h) was 2.70 and the “Growth of Bifidobacteruim bifidum” value ([3]; 0.125% MSM, 32 h) was 3.37. The “Growth of Bifidobacteruim bifidum” value ([3]; 0.125% MSM, 40 h) was 4.19, the “Growth of Bifidobacteruim bifidum” value ([3]; 0.125% MSM, 48 h) was 6.41 and the “Growth of Bifidobacteruim bifidum” value ([3]; 0.125% MSM, 56 h) was 9.97. The “Growth of Bifidobacteruim bifidum” value ([3]; 0.125% MSM, 64 h) was 11.34, the “Growth of Bifidobacteruim bifidum” value ([3]; 0.125% MSM, 72 h) was 10.00 and the “Growth of Bifidobacteruim bifidum” value ([3]; 0.2% MSM, 0 h) was 1.82. The “Growth of Bifidobacteruim bifidum” value ([3]; 0.2% MSM, 8 h) was 2.08, the “Growth of Bifidobacteruim bifidum” value ([3]; 0.2% MSM, 16 h) was 5.22 and the “Growth of Bifidobacteruim bifidum” value ([3]; 0.2% MSM, 24 h) was 6.15. For the same substance, the “Growth of Bifidobacteruim bifidum” value ([3]; 0.2% MSM, 32 h) was 5.03, the “Growth of Bifidobacteruim bifidum” value ([3]; 0.2% MSM, 40 h) was 8.14 and the “Growth of Bifidobacteruim bifidum” value ([3]; 0.2% MSM, 48 h) was 8.55. The “Growth of Bifidobacteruim bifidum” value ([3]; 0.2% MSM, 56 h) was 9.00, the “Growth of Bifidobacteruim bifidum” value ([3]; 0.2% MSM, 64 h) was 10.19 and the “Growth of Bifidobacteruim bifidum” value ([3]; 0.2% MSM, 72 h) was 9.10. For the same substance, the “Growth of Bifidobacteruim bifidum” value ([3]; 0.50% MSM, 0 h) was 1.85, the “Growth of Bifidobacteruim bifidum” value ([3]; 0.50% MSM, 8 h) was 1.99 and the “Growth of Bifidobacteruim bifidum” value ([3]; 0.50% MSM, 16 h) was 6.53. For the same substance, the “Growth of Bifidobacteruim bifidum” value ([3]; 0.50% MSM, 24 h) was 3.14, the “Growth of Bifidobacteruim bifidum” value ([3]; 0.50% MSM, 32 h) was 3.52 and the “Growth of Bifidobacteruim bifidum” value ([3]; 0.50% MSM, 40 h) was 4.62. For the same substance, the “Growth of Bifidobacteruim bifidum” value ([3]; 0.50% MSM, 48 h) was 4.51, the “Growth of Bifidobacteruim bifidum” value ([3]; 0.50% MSM, 56 h) was 6.05 and the “Growth of Bifidobacteruim bifidum” value ([3]; 0.50% MSM, 64 h) was 9.55. The “Growth of Bifidobacteruim bifidum” value ([3]; 0.50% MSM, 72 h) was 7.52, the “Growth of Bifidobacteruim bifidum” value ([3]; 1% MSM, 0 h) was 1.48 and the “Growth of Bifidobacteruim bifidum” value ([3]; 1% MSM, 8 h) was 1.70. For the same substance, the “Growth of Bifidobacteruim bifidum” value ([3]; 1% MSM, 16 h) was 6.81, the “Growth of Bifidobacteruim bifidum” value ([3]; 1% MSM, 24 h) was 2.75 and the “Growth of Bifidobacteruim bifidum” value ([3]; 1% MSM, 32 h) was 3.37. For the same substance, the “Growth of Bifidobacteruim bifidum” value ([3]; 1% MSM, 40 h) was 3.48, the “Growth of Bifidobacteruim bifidum” value ([3]; 1% MSM, 48 h) was 3.90 and the “Growth of Bifidobacteruim bifidum” value ([3]; 1% MSM, 56 h) was 8.32. For the same substance, the “Growth of Bifidobacteruim bifidum” value ([3]; 1% MSM, 64 h) was 8.02, the “Growth of Bifidobacteruim bifidum” value ([3]; 1% MSM, 72 h) was 9.52 and the “Growth of Bifidobacteruim bifidum” value ([3]; 5% MSM, 0 h) was 1.00. The “Growth of Bifidobacteruim bifidum” value ([3]; 5% MSM, 8 h) was 2.29, the “Growth of Bifidobacteruim bifidum” value ([3]; 5% MSM, 16 h) was 6.71 and the “Growth of Bifidobacteruim bifidum” value ([3]; 5% MSM, 24 h) was 5.72. The “Growth of Bifidobacteruim bifidum” value ([3]; 5% MSM, 32 h) was 10.32, the “Growth of Bifidobacteruim bifidum” value ([3]; 5% MSM, 40 h) was 12.02 and the “Growth of Bifidobacteruim bifidum” value ([3]; 5% MSM, 48 h) was 10.54. For the same substance, the “Growth of Bifidobacteruim bifidum” value ([3]; 5% MSM, 56 h) was 10.92, the “Growth of Bifidobacteruim bifidum” value ([3]; 5% MSM, 64 h) was 12.04 and the “Growth of Bifidobacteruim bifidum” value ([3]; 5% MSM, 72 h) was 12.43. The “Growth of Bifidobacteruim bifidum” value ([3]; […] MSM, 0 h) was 1.64, the “Growth of Bifidobacteruim bifidum” value ([3]; […] MSM, 8 h) was 1.60 and the “Growth of Bifidobacteruim bifidum” value ([3]; […] MSM, 16 h) was 6.21. The “Growth of Bifidobacteruim bifidum” value ([3]; […] MSM, 24 h) was 2.52, the “Growth of Bifidobacteruim bifidum” value ([3]; […] MSM, 32 h) was 3.37 and the “Growth of Bifidobacteruim bifidum” value ([3]; […] MSM, 40 h) was 3.52. For the same substance, the “Growth of Bifidobacteruim bifidum” value ([3]; […] MSM, 48 h) was 3.95.
